Common to all, as to format: cell-based
Assay [1] deals with ZBTB7A (Zinc Finger And BTB Domain Containing 7A) (Homo sapiens (Human), UniProt O95365+Q96SW2). Put plainly: HUDEP-2 ZBTB7A HiBiT degradation assay. As to conditions: HUDEP-2 ZBTB7A HiBiT cells, 24 hours treatment, luminescence; for DC50: read-out: ZBTB7A EC50. On the procedure: (§1) The HiBiT degradation assay for WIZ and ZBTB7A in HUDEP-2 cells was performed as described below. HUDEP-2 cells engineered to express a HiBiT tag in either the WIZ (Widely interspaced zinc finger) or ZBTB7A (Zinc Finger And BTB Domain Containing 7A) proteins were maintained in low attachment flasks in StemSpan SFEM II media supplemented with Penicillin-Streptomycin (50 U/mL), rhSCF (50 ng/mL), rhEPO (3 IU/mL), dexamethasone (0.4 μg/mL) and doxycycline (1 μg/mL). Prior to start of the assay, cell count and viability were measured by trypan blue exclusion using the Vi-cell XR cell viability analyzer. For the HUDEP-2 WIZ HiBiT assay, cells were transferred to a 50 mL conical and centrifuged at 500 g for five minutes. Cells were resuspended in fresh StemSpan SFEM II media supplemented with Penicillin-Streptomycin (50 U/mL), rhSCF (50 ng/mL), rhEPO (3 IU/mL), dexamethasone (0.4 μg/mL) and doxycycline (1 μg/mL) at a density of 1.0×10^6 cells/ml. Forty microliters of cell suspension was dispensed into 384-well Low Flange White Flat Bottom Polystyrene TC-treated Microplates containing pre-dispensed compounds, using a VIAFLO 384 liquid hander, and placed in a 37° C. incubator with 5% CO2. […] After 24 hours of treatment, 40 μL Nano-Glo HiBiT Lytic Detection System reagent was dispensed into each well using a VIAFLO 384 liquid hander. Plates were incubated for 25 minutes at room temperature and the luminescence was read as relative luminescent units using the EnVision plate reader. EC50 and Y-min values were calculated using curves calculated from dotmatics software after the normalization to the DMSO control of 10 different concentrations: 10, 3.33, 1.11, 0.37, 0.12, 0.04 0.0137, 0.0046, 0.0015 and 0.0005 μM respectively.
For the HUDEP-2 ZBTB7A HiBiT assay, cell count and viability were measured by trypan blue exclusion using the Vi-cell XR cell viability analyzer and the cells were transferred to a 50 mL conical and centrifuged at 500 g for five minutes. Cells were resuspended in fresh IMDM media supplemented with L-Glutamine (1×), Penicillin-Streptomycin (50 U/mL), holo-transferrin (330 μg/mL), heparin (2 IU/mL), r-human Insulin (10 μg/mL), rhEPO (3 IU/mL), rhSCF (100 ng/mL)+Dox (1 μg/mL) and 5% human plasma in low attachment flasks, which were placed in a 37° C. incubator with 5% CO2. After 48 hours, cell count and viability were measured by trypan blue exclusion using the Vi-cell XR cell viability analyzer. The HUDEP-2 ZBTB7A cells were transferred to a 50 mL conical, centrifuged at 500 g for five minutes and resuspended at a density of 1.0×10^6 cells/ml in IMDM media supplemented with L-Glutamine (1×), Penicillin-Streptomycin (50 U/mL), holo-transferrin (330 μg/mL), heparin (2 IU/mL), r-human Insulin (10 μg/mL), rhEPO (3 IU/mL), rhSCF (100 ng/mL)+Dox (1 μg/mL) and 5% human plasma. Forty microliters of cell suspension was dispensed into 384-well Low Flange White Flat Bottom Polystyrene TC-treated Microplates containing pre-dispensed compounds, using a VIAFLO 384 liquid hander, and placed in a 37° C. incubator with 5% CO2. […] After 24 hours of treatment, 40 μL Nano-Glo HiBiT Lytic Detection System reagent was dispensed into each well using a VIAFLO 384 liquid hander. Plates were incubated for 25 minutes at room temperature and the luminescence was read as relative luminescent units using the EnVision plate reader. EC50 and Y-min values were calculated using curves calculated from dotmatics software after the normalization to the DMSO control of 10 different concentrations: 10, 3.33, 1.11, 0.37, 0.12, 0.04 0.0137, 0.0046, 0.0015 and 0.0005 μM respectively.

Assay [2] concerns the target WIZ (Widely interspaced zinc finger) (Homo sapiens (Human), UniProt O95785+Q96SW2). Put plainly: HUDEP-2 WIZ HiBiT degradation assay. As to conditions: HUDEP-2 WIZ HiBiT cells, 24 hours treatment, luminescence; for DC50: read-out: WIZ EC50. Here is the method: as §1
For orientation: The HiBiT peptide binds its large partner to form an active luciferase.

For assay [3], the system named is fetal hemoglobin (HbF) in GCSF-mobilized human CD34+ cells. Put plainly: HbF Induction Assay. As to conditions: 168 h; compound 1 μM, 7 days, erythroid-differentiated human CD34+ cells, flow cytometry; DMSO baseline 15% HbF positive cells. Here is the method:
The expansion, differentiation, and maturation of GCSF-mobilized human CD34^+ (STEMCELL Technologies Inc.) cells towards erythroid lineage cells were performed using a two-phase liquid culture model (Moutouh-de Parseval L A, el al. Pomalidomide and lenalidomide regulate erythropoiesis and fetal hemoglobin production in human CD34+ cells. J Clin Invest. 2008 January; 118(1):248-58). In the first phase, GCSF-mobilized human CD34^+ cells were cultured using StemSpan™-XF (STEMCELL Technologies Inc.) media supplemented with 1×BIT 9500, Penicillin-Streptomycin (50 U/mL), 100 ng/mL recombinant human (rh) SCF, 100 ng/mL rh Flt3-L, 20 ng/mL rh IL-3 and 10 ng/mL rh EPO and the growth of cells maintained in exponential phase for 7 days at 37° C. with 5% CO2 to support expansion and progenitor differentiation prior the second phase and treatment with compounds. In the second phase, culture media was changed to StemSpan™-XF media supplemented with 1×BIT 9500, Penicillin-Streptomycin (50 U/mL), 50 ng/mL rh SCF and 40 ng/mL rh EPO to promote further differentiation and maturation of the erythrocytes and to initiate treatment with compounds. Compounds were dispensed in duplicate at a final concentration of 1 μM in a final DMSO amount of 0.1%. Fresh compound was reapplied, and cell density was kept constant every 2 days. After 7 days, the cells were assessed for viability and fetal hemoglobin expression using flow cytometry. For viability analysis, eBioscience™ Fixable Viability Dye eFluor™ 780 (1:1000, eBioscience; Cat #65-0865-14) was added to the cells and kept in the dark for 10 minutes. For analysis of fetal hemoglobin (HbF), cells were fixed and permeabilized using Fixation Buffer (BioLegend; Cat #420801 and Intracellular staining permeabilization buffer (BioLegend, Cat #420201) following manufacturer's instructions. During permeabilization step, cells were stained with PE-labelled Mouse Anti-Human Fetal Hemoglobin (1:10, clone 2D12; BD Biosciences, Cat #BDB560041) incubated at room temperature for 20 minutes and protected from light. PE-labelled Mouse anti-IgG k, (1:10 clone MOPC-21; BD Biosciences, Cat# BDB551436) was used as an isotype control.
Viability, cell count, and fetal hemoglobin (HbF) levels were measured using an Attune NXT flow cytometer (Thermofisher) and the data analyzed using the FCS express software (De Novo Software). In Table 1 below, the effects of compounds of formula (I), formula (I′), formula (II), formula (II′), and formula (III) on % viable cells, viable cell count, on the % HbF positive cells and the median fluorescent intensity (MFI) of the HbF positive cell population compared to the DMSO controls can be viewed. All gates were set using the isotype negative control. The baseline % HbF positive cells for DMSO-treated control cells was 15%. Compounds of formula (I), formula (I′), formula (II), formula (II′), and formula (III) having HbF induction between 66% and 100% are level A. Compounds of formula (I), formula (I′), formula (II), formula (II′), and formula (III) having HbF induction between 33% and 66% are level B. Compounds of formula (I), formula (I′), formula (II), formula (II′), and formula (III) having HbF induction % less than 33% are level C. For certain compounds of formula (I), formula (I′), formula (II), formula (II′), and formula (III) % HbF induction values 0-33% (activity level C), between 33% and 66% (activity level B), and between 67% and 100% (activity level A) are shown in Table 2 below.
On the technique in general: In flow cytometry, cells or beads pass a laser one at a time.

Structures are written as SMILES. Where only a bound is given, the exact number is not on record here.

Chain of ZBTB7A (Zinc Finger And BTB Domain Containing 7A) (O95365 whole entry, the tested form may be a part): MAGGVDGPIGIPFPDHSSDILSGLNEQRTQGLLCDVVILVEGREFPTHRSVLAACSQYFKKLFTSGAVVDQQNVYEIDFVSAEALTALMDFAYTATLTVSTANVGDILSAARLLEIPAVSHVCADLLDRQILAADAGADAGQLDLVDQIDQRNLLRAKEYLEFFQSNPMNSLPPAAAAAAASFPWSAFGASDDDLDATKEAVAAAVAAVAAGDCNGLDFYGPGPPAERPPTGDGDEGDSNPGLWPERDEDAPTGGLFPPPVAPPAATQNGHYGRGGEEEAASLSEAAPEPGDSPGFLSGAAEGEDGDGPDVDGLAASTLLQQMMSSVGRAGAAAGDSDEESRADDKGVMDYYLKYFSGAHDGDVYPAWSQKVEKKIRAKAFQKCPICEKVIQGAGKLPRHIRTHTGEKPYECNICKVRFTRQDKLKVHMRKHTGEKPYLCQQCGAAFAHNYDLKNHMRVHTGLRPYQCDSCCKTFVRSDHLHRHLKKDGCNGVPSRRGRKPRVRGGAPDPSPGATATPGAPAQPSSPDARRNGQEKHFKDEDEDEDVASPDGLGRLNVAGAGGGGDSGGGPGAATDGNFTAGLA
Chain of ZBTB7A (Zinc Finger And BTB Domain Containing 7A) (Q96SW2 whole entry, the tested form may be a part): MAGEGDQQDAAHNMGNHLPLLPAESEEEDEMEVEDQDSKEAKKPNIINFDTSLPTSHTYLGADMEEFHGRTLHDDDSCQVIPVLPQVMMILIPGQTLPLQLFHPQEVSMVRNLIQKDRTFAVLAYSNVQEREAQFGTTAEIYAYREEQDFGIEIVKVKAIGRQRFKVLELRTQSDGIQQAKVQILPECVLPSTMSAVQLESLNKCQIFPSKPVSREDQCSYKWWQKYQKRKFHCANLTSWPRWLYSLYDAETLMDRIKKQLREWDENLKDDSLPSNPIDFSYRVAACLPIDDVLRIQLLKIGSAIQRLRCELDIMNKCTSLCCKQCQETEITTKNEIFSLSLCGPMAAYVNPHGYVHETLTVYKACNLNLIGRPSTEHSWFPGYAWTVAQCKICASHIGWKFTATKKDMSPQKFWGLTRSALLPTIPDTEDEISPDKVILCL
Chain of ZBTB7A (Zinc Finger And BTB Domain Containing 7A) (Q16531 whole entry partner, the tested form may be a part): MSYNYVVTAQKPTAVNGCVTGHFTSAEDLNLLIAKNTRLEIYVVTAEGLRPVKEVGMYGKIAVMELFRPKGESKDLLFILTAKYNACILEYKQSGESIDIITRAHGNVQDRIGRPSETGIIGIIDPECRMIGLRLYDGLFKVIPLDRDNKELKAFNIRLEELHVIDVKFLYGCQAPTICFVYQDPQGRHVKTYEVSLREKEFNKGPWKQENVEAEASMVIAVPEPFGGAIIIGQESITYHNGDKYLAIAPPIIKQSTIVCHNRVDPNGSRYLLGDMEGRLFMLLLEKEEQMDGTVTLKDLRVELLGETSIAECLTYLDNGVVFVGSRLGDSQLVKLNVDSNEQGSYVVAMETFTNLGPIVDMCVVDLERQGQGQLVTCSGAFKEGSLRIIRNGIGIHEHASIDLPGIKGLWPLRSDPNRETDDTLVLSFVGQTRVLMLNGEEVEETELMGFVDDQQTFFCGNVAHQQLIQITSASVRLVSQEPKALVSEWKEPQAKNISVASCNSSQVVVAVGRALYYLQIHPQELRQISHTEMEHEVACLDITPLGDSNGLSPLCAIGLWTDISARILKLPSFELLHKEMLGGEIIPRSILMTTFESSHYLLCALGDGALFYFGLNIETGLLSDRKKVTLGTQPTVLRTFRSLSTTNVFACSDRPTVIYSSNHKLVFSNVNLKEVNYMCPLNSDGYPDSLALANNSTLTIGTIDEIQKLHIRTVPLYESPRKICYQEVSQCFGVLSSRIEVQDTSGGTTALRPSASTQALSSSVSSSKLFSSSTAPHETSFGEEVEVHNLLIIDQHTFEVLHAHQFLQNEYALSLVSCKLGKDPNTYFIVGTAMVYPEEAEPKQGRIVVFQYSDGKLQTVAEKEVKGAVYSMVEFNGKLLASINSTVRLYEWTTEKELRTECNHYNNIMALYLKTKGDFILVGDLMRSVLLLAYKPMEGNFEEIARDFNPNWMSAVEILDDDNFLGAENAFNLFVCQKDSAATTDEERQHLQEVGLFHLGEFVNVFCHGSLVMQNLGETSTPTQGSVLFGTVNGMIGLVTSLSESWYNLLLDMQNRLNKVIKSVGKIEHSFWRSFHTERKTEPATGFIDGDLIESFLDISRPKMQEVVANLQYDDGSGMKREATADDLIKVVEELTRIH
Chain of WIZ (Widely interspaced zinc finger) (O95785 whole entry): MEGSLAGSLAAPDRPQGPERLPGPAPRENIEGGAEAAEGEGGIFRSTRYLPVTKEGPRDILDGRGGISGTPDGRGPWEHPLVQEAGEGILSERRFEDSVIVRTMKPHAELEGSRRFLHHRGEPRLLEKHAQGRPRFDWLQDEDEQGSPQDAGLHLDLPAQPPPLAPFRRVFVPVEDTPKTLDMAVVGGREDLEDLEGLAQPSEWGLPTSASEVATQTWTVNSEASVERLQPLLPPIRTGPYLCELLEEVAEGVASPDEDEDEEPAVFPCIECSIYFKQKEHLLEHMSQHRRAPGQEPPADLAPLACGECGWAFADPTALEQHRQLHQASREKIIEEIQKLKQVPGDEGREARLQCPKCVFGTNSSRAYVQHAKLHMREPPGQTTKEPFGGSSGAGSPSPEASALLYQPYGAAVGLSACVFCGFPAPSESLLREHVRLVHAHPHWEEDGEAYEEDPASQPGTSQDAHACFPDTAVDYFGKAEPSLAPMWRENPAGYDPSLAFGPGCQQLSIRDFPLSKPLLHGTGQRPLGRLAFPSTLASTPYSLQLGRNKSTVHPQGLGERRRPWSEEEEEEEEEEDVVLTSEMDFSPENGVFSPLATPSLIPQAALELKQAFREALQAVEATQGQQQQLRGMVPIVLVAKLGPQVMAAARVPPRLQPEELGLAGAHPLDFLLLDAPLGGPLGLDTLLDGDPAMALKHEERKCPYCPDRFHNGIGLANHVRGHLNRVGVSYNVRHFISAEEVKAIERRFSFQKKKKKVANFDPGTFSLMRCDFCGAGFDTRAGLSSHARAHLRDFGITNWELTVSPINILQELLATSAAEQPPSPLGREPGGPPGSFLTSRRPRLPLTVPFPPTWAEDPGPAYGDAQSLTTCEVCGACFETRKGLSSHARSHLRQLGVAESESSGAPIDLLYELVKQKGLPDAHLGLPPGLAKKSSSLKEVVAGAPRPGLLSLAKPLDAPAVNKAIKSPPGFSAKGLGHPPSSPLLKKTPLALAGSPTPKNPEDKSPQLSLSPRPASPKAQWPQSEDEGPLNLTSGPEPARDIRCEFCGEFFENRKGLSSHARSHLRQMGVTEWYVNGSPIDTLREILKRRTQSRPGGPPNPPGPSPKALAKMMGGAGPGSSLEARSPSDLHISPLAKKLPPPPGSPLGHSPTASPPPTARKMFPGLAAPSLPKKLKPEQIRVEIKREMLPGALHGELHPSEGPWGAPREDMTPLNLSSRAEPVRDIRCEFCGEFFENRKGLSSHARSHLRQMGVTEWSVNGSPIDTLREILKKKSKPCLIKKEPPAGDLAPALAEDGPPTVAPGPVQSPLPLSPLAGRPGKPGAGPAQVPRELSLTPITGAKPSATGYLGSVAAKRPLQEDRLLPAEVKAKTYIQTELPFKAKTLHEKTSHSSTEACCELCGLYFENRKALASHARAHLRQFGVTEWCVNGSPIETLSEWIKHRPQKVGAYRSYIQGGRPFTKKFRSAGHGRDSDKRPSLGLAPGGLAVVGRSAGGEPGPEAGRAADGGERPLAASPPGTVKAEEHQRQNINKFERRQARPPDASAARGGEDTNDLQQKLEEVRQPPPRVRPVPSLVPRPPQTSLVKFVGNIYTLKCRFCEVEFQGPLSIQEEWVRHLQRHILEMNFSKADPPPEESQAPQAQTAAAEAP
Chain of WIZ (Widely interspaced zinc finger) (Q96SW2 whole entry): as the sequence (Q96SW2 whole entry, the tested form may be a part) above
Chain of WIZ (Widely interspaced zinc finger) (Q16531 whole entry partner): as the sequence (Q16531 whole entry partner, the tested form may be a part) above

In assay [1], `Cn1ncc2cc(Nc3cccc4c3C(=O)N(C3CCC(=O)NC3=O)C4=O)c(-c3cccc(C(F)(F)F)c3)cc21` (stereo not drawn) [Compound 28, 2-(2,6-dioxopiperidin-3-yl)-4-((1-methyl-6-(3-(trifluoromethyl)phenyl)-1H-indazol-5-yl)amino)isoindoline-1,3-dione] came in with an EC50 greater than 100 nM. The DC50 in assay [2] was greater than 100 nM. The compound also yielded an activation at 1 µM in assay [3] of less than 33%.

In the case of `Cc1cccc(F)c1Oc1ccc2c(cnn2C)c1Nc1cccc2c1C(=O)N(C1CCC(=O)NC1=O)C2=O` (stereo not drawn) [Compound 6, 2-(2,6-dioxopiperidin-3-yl)-4-((5-(2-fluoro-6-methylphenoxy)-1-methyl-1H-indazol-4-yl)amino)isoindoline-1,3-dione], the DC50 in assay [1] fell in the range of 30 to 100 nM. The EC50 in assay [2] was less than 10 nM. Further, the activation at 1 µM in assay [3] was in the range of 66 to 100%.

Take `O=C1CCC(N2C(=O)c3cccc(Nc4cc5cnn(C6CCOCC6)c5cc4C4CC4)c3C2=O)C(=O)N1` (stereo not drawn) [Compound 10, 4-((6-cyclopropyl-1-(tetrahydro-2H-pyran-4-yl)-1H-indazol-5-yl)amino)-2-(2,6-dioxopiperidin-3-yl)isoindoline-1,3-dione]: the EC50 in assay [1] was greater than 100 nM; in assay [2] it was less than 10 nM. The activation at 1 µM in assay [3] was in the range of 66 to 100%.

`Cn1ncc2cc(Oc3ccccc3)c(Nc3cccc4c3C(=O)N(C3CCC(=O)NC3=O)C4=O)cc21` (stereo not drawn) [Compound 27, 2-(2,6-dioxopiperidin-3-yl)-4-((1-methyl-5-phenoxy-1H-indazol-6-yl)amino)isoindoline-1,3-dione] had an EC50 in assay [1] greater than 100 nM. Besides, in assay [2], the DC50 fell in the range of 10 to 100 nM. Moreover, in assay [3], the activation at 1 µM is less than 33%.

Take `Cn1ncc2cc(Nc3cccc4c3C(=O)N(C3CCC(=O)NC3=O)C4=O)c(Oc3ccccc3)cc21` (stereo not drawn) [Compound 15, 2-(2,6-dioxopiperidin-3-yl)-4-((1-methyl-6-phenoxy-1H-indazol-5-yl)amino)isoindoline-1,3-dione]: the DC50 in assay [1] is 30 to 100 nM. The EC50 in assay [2] is less than 10 nM. The compound further came in with an activation at 1 µM in assay [3] of 66 to 100%.

Regarding `Cc1cc(-c2cc3c(cc2Nc2cccc4c2C(=O)N([C@H]2CCC(=O)NC2=O)C4=O)N(C)C(=O)CC3)ccn1` [Compound 32, (S)-2-(2,6-dioxopiperidin-3-yl)-4-((1-methyl-6-(2-methylpyridin-4-yl)-2-oxo-1,2,3,4-tetrahydroquinolin-7-yl)amino)isoindoline-1,3-dione], the DC50 in assay [1] fell in the range of 30 to 100 nM. The compound also showed a half-maximal effective concentration (EC50) in assay [2] of less than 10 nM. Moreover, in assay [3], the activation at 1 µM is 66 to 100%.

Regarding `Cc1nccc(-c2cc3c(cc2Nc2cccc4c2C(=O)N(C2CCC(=O)NC2=O)C4=O)N(C)C(=O)CC3)c1F` (stereo not drawn) [Compound 45, 2-(2,6-dioxopiperidin-3-yl)-4-((6-(3-fluoro-2-methylpyridin-4-yl)-1-methyl-2-oxo-1,2,3,4-tetrahydroquinolin-7-yl)amino)isoindoline-1,3-dione], the EC50 in assay [1] was less than 30 nM; in assay [2] it was less than 10 nM. Also, the activation at 1 µM in assay [3] lay in the range of 66 to 100%.

On to `O=C1CCC(N2C(=O)c3cccc(Nc4cc5cnn(C6CCOCC6)c5cc4Oc4cccc(F)c4)c3C2=O)C(=O)N1` (stereo not drawn) [Compound 16, 2-(2,6-dioxopiperidin-3-yl)-4-((6-(3-fluorophenoxy)-1-(tetrahydro-2H-pyran-4-yl)-1H-indazol-5-yl)amino)isoindoline-1,3-dione], for which the EC50 in assay [1] was greater than 100 nM; in assay [2], less than 10 nM. The activation at 1 µM in assay [3] lay in the range of 66 to 100%.

Regarding `Cc1cc(-c2cc3c(cnn3C)cc2Nc2cccc3c2C(=O)N(C2CCC(=O)NC2=O)C3=O)cnn1` (stereo not drawn) [Compound 24, 2-(2,6-dioxopiperidin-3-yl)-4-((1-methyl-6-(6-methylpyridazin-4-yl)-1H-indazol-5-yl)amino)isoindoline-1,3-dione], in assay [1], the EC50 was greater than 100 nM. The DC50 in assay [2] was greater than 100 nM. For the same compound, the activation at 1 µM in assay [3] was 33 to 66%.

Turning to `Cc1cc(Oc2ccccc2)c(Nc2cccc3c2C(=O)N(C2CCC(=O)NC2=O)C3=O)cn1` (stereo not drawn) [Compound 21, 2-(2,6-dioxopiperidin-3-yl)-4-((6-methyl-4-phenoxypyridin-3-yl)amino)isoindoline-1,3-dione], the DC50 in assay [1] was 30 to 100 nM. In addition, in assay [2], the concentration giving a half-maximal response (EC50) was less than 10 nM. The same compound displayed an activation at 1 µM in assay [3] of 33 to 66%.

On to `Cc1csc(-c2cc3c(cc2Nc2cccc4c2C(=O)N(C2CCC(=O)NC2=O)C4=O)N(C)C(=O)CC3)n1` (stereo not drawn) [Compound 39, 2-(2,6-dioxopiperidin-3-yl)-4-((1-methyl-6-(4-methylthiazol-2-yl)-2-oxo-1,2,3,4-tetrahydroquinolin-7-yl)amino)isoindoline-1,3-dione], for which the DC50 in assay [1] lay in the range of 30 to 100 nM; in assay [2] it was 10 to 100 nM. This compound showed an activation at 1 µM in assay [3] of 33 to 66%.

Usually EC50 stands for the concentration needed to bring the measured effect to its halfway point. Low values mean higher potency in that assay, high ones lower potency in that assay.

Values taken from patent US20240208937A1, “Compounds and Their Use for Treatment of Hemoglobinopathies” (Bristol-Myers Squibb Company, priority 2022, published 2024).
